The record followed here is US20080200454A1, “CARBON-LINKED TETRAHYDRO-PYRAZOLO-PYRIDINE MODULATORS OF CATHEPSIN S” (priority 2007, published 2008).

Read-outs that look alike come from different tables or passages of the source.

The test addresses Recombinant human cathepsin S (CatS) (Homo sapiens, UniProt P25774). In words: Recombinant human cathepsin S (CatS) inhibition assay, fluorogenic substrate Z-Valine-Valine-Arginine-AMC.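 Further: Baculovirus-expressed CatS in pH 5.0 sodium acetate buffer with DTT and NaCl, fluorescence read each minute over 20 min, inhibition derived from rate slope.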

Sequence of Recombinant human cathepsin S (CatS) (P25774 115-331): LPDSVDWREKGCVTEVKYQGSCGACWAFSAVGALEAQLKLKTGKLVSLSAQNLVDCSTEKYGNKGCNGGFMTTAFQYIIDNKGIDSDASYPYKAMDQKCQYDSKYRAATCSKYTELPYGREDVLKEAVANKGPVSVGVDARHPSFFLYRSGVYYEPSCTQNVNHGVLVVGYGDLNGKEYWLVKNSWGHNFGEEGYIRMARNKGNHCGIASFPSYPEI

Usually IC50 stands for the concentration that inhibits the measured activity by half. With `CS(=O)(=O)N1CCc2c(c(-c3ccc(Cl)c(C#Cc4ccc(CNCc5ccc(Cl)cc5)cc4)c3)nn2CCCN2CC[C@@H](O)C2)C1` [Example 383, (3R)-1-{3-[3-(4-Chloro-3-{[4-({[(4-chlorophenyl)methyl]amino}methyl)phenyl]ethynyl}phenyl)-5-(methylsulfonyl)-4,5,6,7-tetrahydro-1H-pyrazolo[4,3-c]pyridin-1-yl]propyl}pyrrolidin-3-ol], for the setting “CatS IC50”, the IC50 was found to be 120 nM.

Turning to `O=C(C1CCCO1)N1CCc2c(c(-c3ccc(Cl)c(C#Cc4ccc(Cl)cc4)c3)nn2CCCN2CCOCC2)C1` (stereo not shown) [Example 141, [3-[4-Chloro-3-(4-chloro-phenylethynyl)-phenyl]-1-(3-morpholin-4-yl-propyl)-1,4,6,7-tetrahydro-pyrazolo[4,3-c]pyridin-5-yl]-(tetrahydro-furan-2-yl)-methanone], where the note is “CatS IC50”, the half-maximal inhibitory concentration (IC50) was determined as 310 nM.

For `CCN(CC)CC#Cc1cc(-c2nn(C[C@@H](O)CN3CCC(C4CCN(C(=O)OC(C)(C)C)CC4)CC3)c3c2CN(S(C)(=O)=O)CC3)ccc1Cl` [Example 236, 1,1-Dimethylethyl 1′-{(2S)-3-[3-{4-chloro-3-[3-(diethylamino)prop-1-yn-1-yl]phenyl}-5-(methylsulfonyl)-4,5,6,7-tetrahydro-1H-pyrazolo[4,3-c]pyridin-1-yl]-2-hydroxypropyl}-4,4′-bipiperidine-1-carboxylate], the IC50 turned out to be 7130 nM.

In the case of `CS(=O)(=O)N1CCc2c(c(-c3ccc(Cl)c(C#Cc4ccc(CNCc5cccnc5)cc4)c3)nn2CCCN2CCOCC2)C1` [Example 404, 1-[4-({2-Chloro-5-[5-(methylsulfonyl)-1-(3-morpholin-4-ylpropyl)-4,5,6,7-tetrahydro-1H-pyrazolo[4,3-c]pyridin-3-yl]phenyl}ethynyl)phenyl]-N-(pyridin-3-ylmethyl)methanamine], the IC50 (CatS IC50) is 370 nM.

Regarding `NC(=O)N1CCc2c(c(-c3ccc(Cl)c(C#Cc4ccc(Cl)c(C(=O)NCC5CCCNC5)c4)c3)nn2CCCN2CCSCC2)C1` (stereo not shown) [Example 583, 3-[4-Chloro-3-({4-chloro-3-[(piperidin-3-ylmethyl)carbamoyl]phenyl}ethynyl)phenyl]-1-(3-thiomorpholin-4-ylpropyl)-1,4,6,7-tetrahydro-5H-pyrazolo[4,3-c]pyridine-5-carboxamide], the IC50 stood at 30 nM.

On to `Cn1cncc1CNCc1ccc(C#Cc2cc(-c3nn(CCCN4CCOCC4)c4c3CN(S(C)(=O)=O)CC4)ccc2Cl)cc1` [Example 457, 1-[4-({2-Chloro-5-[5-(methylsulfonyl)-1-(3-morpholin-4-ylpropyl)-4,5,6,7-tetrahydro-1H-pyrazolo[4,3-c]pyridin-3-yl]phenyl}ethynyl)phenyl]-N-[(1-methyl-1H-imidazol-5-yl)methyl]methanamine], for which the IC50 (CatS IC50) was found to be 90 nM.

Take `NC(=O)N1CCc2c(c(-c3ccc(Cl)c(C#Cc4ccc(CN[C@@H]5CCCc6ccccc65)cc4)c3)nn2CCCN2CCOCC2)C1` [Example 477, 3-{4-Chloro-3-[(4-{[(1R)-1,2,3,4-tetrahydronaphthalen-1-ylamino]methyl}phenyl)ethynyl]phenyl}-1-(3-morpholin-4-ylpropyl)-1,4,6,7-tetrahydro-5H-pyrazolo[4,3-c]pyridine-5-carboxamide]: the IC50 (CatS IC50) was determined as 100 nM.

Regarding `C[C@@H]1COCCN1CCCn1nc(-c2ccc(Cl)c(C#Cc3ccc(CNCc4ccc(Cl)cc4)cc3)c2)c2c1CCN(S(C)(=O)=O)C2` [Example 536, 1-[4-({2-Chloro-5-[1-{3-[(3R)-3-methylmorpholin-4-yl]propyl}-5-(methylsulfonyl)-4,5,6,7-tetrahydro-1H-pyrazolo[4,3-c]pyridin-3-yl]phenyl}ethynyl)phenyl]-N-[(4-chlorophenyl)methyl]methanamine], the IC50 is 200 nM.

Take `CCCCC#Cc1cc(-c2nn(CCCN3CCOCC3)c3c2CN(S(C)(=O)=O)CC3)ccc1Cl` [Example 47, 3-(4-Chloro-3-hex-1-ynyl-phenyl)-5-methanesulfonyl-1-(3-morpholin-4-yl-propyl)-4,5,6,7-tetrahydro-1H-pyrazolo[4,3-c]pyridine]: the IC50 (CatS IC50, Table 2, average of results obtained) stood at 10600 nM.

`NC(=O)C(=O)N1CCc2c(c(-c3ccc(Cl)c(C#Cc4ccc(CNCc5ccc(Cl)cc5)cc4)c3)nn2CCCN2CCC(C(F)(F)F)CC2)C1` [Example 452, 2-[3-(4-Chloro-3-{[4-({[(4-chlorophenyl)methyl]amino}methyl)phenyl]ethynyl}phenyl)-1-{3-[4-(trifluoromethyl)piperidin-1-yl]propyl}-1,4,6,7-tetrahydro-5H-pyrazolo[4,3-c]pyridin-5-yl]-2-oxoacetamide]: the half-inhibitory concentration (IC50) was 100 nM.

As to `NC(=O)C(=O)N1CCc2c(c(-c3ccc(Cl)c(C#Cc4ccc(CNCc5ccc(Cl)cc5)cc4)c3)nn2CCCN2CCC3(CC2)OCCO3)C1` [Example 451, 2-{3-(4-Chloro-3-{[4-({[(4-chlorophenyl)methyl]amino}methyl)phenyl]ethynyl}phenyl)-1-[3-(1,4-dioxa-8-azaspiro[4.5]dec-8-yl)propyl]-1,4,6,7-tetrahydro-5H-pyrazolo[4,3-c]pyridin-5-yl}-2-oxoacetamide], the IC50 (CatS IC50) was 100 nM.

Turning to `COc1ccc(CCc2cc(-c3nn(CCCN4CCOCC4)c4c3CN(S(C)(=O)=O)CC4)ccc2Cl)cc1` [Example 58, 3-{4-Chloro-3-[2-(4-methoxy-phenyl)-ethyl]-phenyl}-5-methanesulfonyl-1-(3-morpholin-4-yl-propyl)-4,5,6,7-tetrahydro-1H-pyrazolo[4,3-c]pyridine], the IC50 was determined as 530 nM.

With `CS(=O)(=O)N1CCc2c(c(-c3ccc(C(F)(F)F)c(C#Cc4ccc(Cl)cc4)c3)nn2CC(O)CN2CCOCC2)C1` (stereo not shown) [Example 122, 1-{3-[3-(4-Chloro-phenylethynyl)-4-trifluoromethyl-phenyl]-5-methanesulfonyl-4,5,6,7-tetrahydro-pyrazolo[4,3-c]pyridin-1-yl}-3-morpholin-4-yl-propan-2-ol], the IC50 came to 260 nM.

Regarding `CC(C)(C)OC(=O)NC1CCN(CCCn2nc(-c3ccc(Cl)c(C#Cc4ccc(CNCc5ccc(Cl)cc5)cc4)c3)c3c2CCN(S(C)(=O)=O)C3)CC1` [Example 329, 1,1-Dimethylethyl (1-{3-[3-(4-chloro-3-{[4-({[(4-chlorophenyl)methyl]amino}methyl)phenyl]ethynyl}phenyl)-5-(methylsulfonyl)-4,5,6,7-tetrahydro-1H-pyrazolo[4,3-c]pyridin-1-yl]propyl}piperidin-4-yl)carbamate], the IC50 (CatS IC50) is 30 nM.

Turning to `CN(C)S(=O)(=O)N1CCc2c(c(-c3ccc(Cl)c(C#Cc4ccc(CNCc5ccc(Cl)cc5)cc4)c3)nn2CCCN2CCOCC2)C1` [Example 153, 3-(4-Chloro-3-{[4-({[(4-chlorophenyl)methyl]amino}methyl)phenyl]ethynyl}phenyl)-N,N-dimethyl-1-(3-morpholin-4-ylpropyl)-1,4,6,7-tetrahydro-5H-pyrazolo[4,3-c]pyridine-5-sulfonamide], the IC50 is 180 nM.

In the case of `CN1CCc2cc(C#Cc3cc(-c4nn(CCCN5CCOCC5)c5c4CN(S(C)(=O)=O)CC5)ccc3Cl)ccc2C1` [Example 518, 6-({2-Chloro-5-[5-(methylsulfonyl)-1-(3-morpholin-4-ylpropyl)-4,5,6,7-tetrahydro-1H-pyrazolo[4,3-c]pyridin-3-yl]phenyl}ethynyl)-2-methyl-1,2,3,4-tetrahydroisoquinoline], the IC50 (CatS IC50) is 390 nM.

With `C[C@H]1COCCN1CCCn1nc(-c2ccc(Cl)c(C#Cc3ccc(Cl)c(C(=O)NCC4CCCNC4)c3)c2)c2c1CCN(C(=O)C(N)=O)C2` (stereo partly drawn) [Example 587, 5-{[5-(5-[Amino(oxo)acetyl]-1-{3-[(3S)-3-methylmorpholin-4-yl]propyl}-4,5,6,7-tetrahydro-1H-pyrazolo[4,3-c]pyridin-3-yl)-2-chlorophenyl]ethynyl}-2-chloro-N-(piperidin-3-ylmethyl)benzamide], the IC50 worked out at 20 nM.

Regarding `CC(C)(C)OC(=O)N1CCc2ccc(C#Cc3cc(-c4nn(CC(O)CN5CCCCC5)c5c4CN(S(C)(=O)=O)CC5)ccc3Cl)cc2C1` (stereo not shown) [Example 371, 1,1-Dimethylethyl 7-({2-chloro-5-[1-(2-hydroxy-3-piperidin-1-ylpropyl)-5-(methylsulfonyl)-4,5,6,7-tetrahydro-1H-pyrazolo[4,3-c]pyridin-3-yl]phenyl}ethynyl)-3,4-dihydroisoquinoline-2(1H)-carboxylate], the half-inhibitory concentration (IC50) stood at 380 nM.

Regarding `CS(=O)(=O)N1CCc2c(c(-c3ccc(Cl)c(C#Cc4cnc5c(c4)CNCC5)c3)nn2CCCN2CCOCC2)C1` [Example 394, 3-({2-Chloro-5-[5-(methylsulfonyl)-1-(3-morpholin-4-ylpropyl)-4,5,6,7-tetrahydro-1H-pyrazolo[4,3-c]pyridin-3-yl]phenyl}ethynyl)-5,6,7,8-tetrahydro-1,6-naphthyridine], the IC50 is 3810 nM.

`CS(=O)(=O)N1CCc2c(c(-c3ccc(Cl)c(C#Cc4ccc(CNCc5ccc(Cl)cc5)cc4)c3)nn2CCCN2CCCC2)C1` [Example 333, 1-[4-({2-Chloro-5-[5-(methylsulfonyl)-1-(3-pyrrolidin-1-ylpropyl)-4,5,6,7-tetrahydro-1H-pyrazolo[4,3-c]pyridin-3-yl]phenyl}ethynyl)phenyl]-N-[(4-chlorophenyl)methyl]methanamine]: where the note is “CatS IC50”, the IC50 was found to be 180 nM.

In the case of `CN(Cc1ccc(Cl)cc1)Cc1ccc(C#Cc2cc(-c3nn(CCCN4CCN(c5ccccc5)CC4)c4c3CN(S(C)(=O)=O)CC4)ccc2Cl)cc1` [Example 490, 1-{4-[(2-Chloro-5-{5-(methylsulfonyl)-1-[3-(4-phenylpiperazin-1-yl)propyl]-4,5,6,7-tetrahydro-1H-pyrazolo[4,3-c]pyridin-3-yl}phenyl)ethynyl]phenyl}-N-[(4-chlorophenyl)methyl]-N-methylmethanamine], where the note is “CatS IC50”, the IC50 amounted to 70 nM.

`CS(=O)(=O)N1CCc2c(c(-c3ccc(Cl)c(C#Cc4ccc(CNCc5ccco5)cc4)c3)nn2CCCN2CCOCC2)C1` [Example 425, 1-[4-({2-Chloro-5-[5-(methylsulfonyl)-1-(3-morpholin-4-ylpropyl)-4,5,6,7-tetrahydro-1H-pyrazolo[4,3-c]pyridin-3-yl]phenyl}ethynyl)phenyl]-N-(furan-2-ylmethyl)methanamine]: under “CatS IC50”, the IC50 was 70 nM.
